Experimental data from US11753407B2, “Compounds for treating spinal muscular atrophy” (PTC Therapeutics, Inc., priority 2012, dated 2023).

Columns and labels:
[1] = test system: Smn protein in SMA patient fibroblast cells (GM03813); experiment: Smn protein assay in cultured cells (SMN HTRF); type: cell-based, human; conditions: SMA patient fibroblast cells, 48 hours; for maximum fold (Fold) increase of Smn protein: 7-point concentration data, fold relative to vehicle control; for EC1.5x for Smn protein expression: 7-point concentration curve, SMN HTRF, concentration producing 1.5 times Smn protein vs DMSO vehicle control
Method in brief: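 Patient-derived SMA fibroblasts are plated, given compound for 48 h, then lysed in RIPA buffer with protease inhibitors. Lysate Smn is detected by an anti-SMN d2/kryptate HTRF pair incubated overnight. The normalized ΔF is divided by the vehicle ΔF to give fold change, from which EC1.5× and maximum fold are taken.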

[2] = test system: SMN2 minigene mRNA (SMN2-A minigene) in HEK293H cells; experiment: SMN2 minigene mRNA splicing RT-qPCR assay in cultured cells; type: cell-based, human; conditions: Homo sapiens, HEK293-H; concentration increasing full length SMN2 mRNA 1.5-fold relative to vehicle-treated cells; HEK293H cells with SMN2-A minigene, 24 hours, 7-point concentration data; read-out: EC1.5x for production of full length SMN2 mRNA
Method in brief: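 Cells are seeded, left to attach 4-6 h, then dosed with test compound across seven concentrations and incubated 24 h. Lysates undergo RT-qPCR with primers/probe specific to the exon 7-containing minigene transcript, co-amplified with GAPDH. Fold change over vehicle is calculated, and EC1.5× marks the 1.5-fold point.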

Row | Structure (SMILES) | melting point [°C] | maximum fold (Fold) increase of Smn protein [1] | EC (1.5-fold increase) [2] [µM] | EC1.5x for Smn protein expression [1]
1 | COc1ccc(-c2cc(=O)n3cc(N4CC[C@H](N)C4)ccc3n2)cc1OC [Compound 159, 7-[(3S)-3-aminopyrrolidin-1-yl]-2-(3,4-dimethoxyphenyl)-4H-pyrido[1,2-a]pyrimidin-4-one] | 148 to 151 | *** (a fold increase between >1.35 and ≤1.5 is indicated by three stars (***)) | 1 to 3 | –
2 | Cc1nc2cc(-c3cc(=O)n4cc(N5CCCNCC5)ccc4n3)ccc2s1 [Compound 161, 7-(1,4-diazepan-1-yl)-2-(2-methyl-1,3-benzothiazol-5-yl)-4H-pyrido[1,2-a]pyrimidin-4-one] | 208 to 212 | *** (a fold increase between >1.35 and ≤1.5 is indicated by three stars (***)) | 0.3 to 1 | ** (an EC1.5× between >1 μM and ≤3 μM is indicated by two stars (**))
3 | Cc1csc(-c2cc(=O)n3cc(N4CCN[C@@H](C)C4)ccc3n2)n1 [Compound 162, 7-[(3S)-3-methylpiperazin-1-yl]-2-(4-methyl-1,3-thiazol-2-yl)-4H-pyrido[1,2-a]pyrimidin-4-one] | 225 to 230 | **** (a fold increase between >1.5 and ≤1.65 is indicated by four stars (****)) | 0.3 to 1 | ** (an EC1.5× between >1 μM and ≤3 μM is indicated by two stars (**))
4 | COc1ccc(-c2cc(=O)n3cc(N4CC[C@H](NC(C)C)C4)ccc3n2)cc1OC [Compound 165, 2-(3,4-dimethoxyphenyl)-7-[(3S)-3-(propan-2-ylamino)pyrrolidin-1-yl]-4H-pyrido[1,2-a]pyrimidin-4-one] | 169 to 172 | ** (a fold increase between >1.2 and ≤1.35 is indicated by two stars (**)) | 1 to 3 | –
5 | COc1ccc(-c2cc(=O)n3cc(N4CCCN(C)CC4)ccc3n2)cc1F [Compound 166, 2-(3-fluoro-4-methoxyphenyl)-7-(4-methyl-1,4-diazepan-1-yl)-4H-pyrido[1,2-a]pyrimidin-4-one] | 176 to 178 | ** (a fold increase between >1.2 and ≤1.35 is indicated by two stars (**)) | 0.3 to 1 | –
6 | COc1ccc(-c2cc(=O)n3cc(N4CCNCC4)ccc3n2)cc1[N+](=O)[O-] [Compound 167, 2-(4-methoxy-3-nitrophenyl)-7-(piperazin-1-yl)-4H-pyrido[1,2-a]pyrimidin-4-one] | 183 to 187 | *** (a fold increase between >1.35 and ≤1.5 is indicated by three stars (***)) | < 0.1 | ** (an EC1.5× between >1 μM and ≤3 μM is indicated by two stars (**))
7 | CSc1ccc(-c2cc(=O)n3cc(N4CCNCC4)ccc3n2)cc1F [Compound 168, 2-[3-fluoro-4-(methylsulfanyl)phenyl]-7-(piperazin-1-yl)-4H-pyrido[1,2-a]pyrimidin-4-one] | 174 to 176 | * (A maximum fold increase of ≤1.2 is indicated by one star (*)) | 0.3 to 1 | –
8 | Cc1cn2cc(-c3cc(=O)n4cc(N5CCCN(C)CC5)ccc4n3)ccc2n1 [Compound 169, 7-(4-methyl-1,4-diazepan-1-yl)-2-(2-methylimidazo[1,2-a]pyridin-6-yl)-4H-pyrido[1,2-a]pyrimidin-4-one] | 208 to 213 | **** (a fold increase between >1.5 and ≤1.65 is indicated by four stars (****)) | < 0.1 | **** (an EC1.5x≤0.3 μM is indicated by four stars (****))
9 | Cc1nc2ccc(-c3cc(=O)n4cc(N5C[C@@H](C)N[C@@H](C)C5)ccc4n3)cc2o1 [Compound 172, 7-[(3R,5S)-3,5-dimethylpiperazin-1-yl]-2-(2-methyl-1,3-benzoxazol-6-yl)-4H-pyrido[1,2-a]pyrimidin-4-one] | 233 to 235 | ***** (a fold increase >1.65 is indicated by five stars (*****)) | < 0.1 | **** (an EC1.5x≤0.3 μM is indicated by four stars (****))
10 | COc1ncc(-c2cc(=O)n3cc(N4CCN[C@@H](C)C4)ccc3n2)cc1F [Compound 173, 2-(5-fluoro-6-methoxypyridin-3-yl)-7-[(3S)-3-methylpiperazin-1-yl]-4H-pyrido[1,2-a]pyrimidin-4-one] | 175 to 180 | ** (a fold increase between >1.2 and ≤1.35 is indicated by two stars (**)) | 0.3 to 1 | –
11 | COc1ncc(-c2cc(=O)n3cc(N4C[C@@H](C)N[C@@H](C)C4)ccc3n2)cc1F [Compound 174, 7-[(3R,5S)-3,5-dimethylpiperazin-1-yl]-2-(5-fluoro-6-methoxypyridin-3-yl)-4H-pyrido[1,2-a]pyrimidin-4-one] | 160 to 165 | ** (a fold increase between >1.2 and ≤1.35 is indicated by two stars (**)) | 1 to 3 | –

More lines, main results first:

Row | melting point [°C] | Structure (SMILES) | maximum fold (Fold) increase of Smn protein [1] | EC (1.5-fold increase) [2] [µM] | EC1.5x for Smn protein expression [1]
12 | 208 to 212 | Cc1nc2cc(-c3cc(=O)n4cc(N5C[C@@H](C)N[C@@H](C)C5)ccc4n3)ccc2s1 [Compound 175, 7-[(3R,5S)-3,5-dimethylpiperazin-1-yl]-2-(2-methyl-1,3-benzothiazol-5-yl)-4H-pyrido[1,2-a]pyrimidin-4-one] | **** (a fold increase between >1.5 and ≤1.65 is indicated by four stars (****)) | < 0.1 | *** (an EC1.5× between >0.3 μM and ≤1 μM is indicated by three stars (***))
13 | 214 to 218 | Cc1nc2cc(-c3cc(=O)n4cc(N5CCN(C)CC5)ccc4n3)ccc2s1 [Compound 176, 2-(2-methyl-1,3-benzothiazol-5-yl)-7-(4-methylpiperazin-1-yl)-4H-pyrido[1,2-a]pyrimidin-4-one] | *** (a fold increase between >1.35 and ≤1.5 is indicated by three stars (***)) | 0.3 to 1 | * (An EC1.5× for Smn protein expression between >3 μM and ≤10 μM is indicated by one star (*))
14 | 165 to 170 | Cc1nc2cc(-c3cc(=O)n4cc(N5CCCN(C)CC5)ccc4n3)ccc2s1 [Compound 177, 2-(2-methyl-1,3-benzothiazol-5-yl)-7-(4-methyl-1,4-diazepan-1-yl)-4H-pyrido[1,2-a]pyrimidin-4-one] | *** (a fold increase between >1.35 and ≤1.5 is indicated by three stars (***)) | 0.1 to 0.3 | –
15 | 254 to 256 | Cc1nc2cc(-c3cc(=O)n4cc(N5CCN6CCC[C@H]6C5)ccc4n3)ccc2s1 [Compound 178, 7-[(8aS)-hexahydropyrrolo[1,2-a]pyrazin-2(1H)-yl]-2-(2-methyl-1,3-benzothiazol-5-yl)-4H-pyrido[1,2-a]pyrimidin-4-one] | ** (a fold increase between >1.2 and ≤1.35 is indicated by two stars (**)) | 0.3 to 1 | –
16 | 204 to 206 | Cc1cn(-c2cc(=O)n3cc(N4CCN[C@@H](C)C4)ccc3n2)cn1 [Compound 180, 2-(4-methyl-1H-imidazol-1-yl)-7-[(3S)-3-methylpiperazin-1-yl]-4H-pyrido[1,2-a]pyrimidin-4-one] | **** (a fold increase between >1.5 and ≤1.65 is indicated by four stars (****)) | 1 to 3 | ** (an EC1.5× between >1 μM and ≤3 μM is indicated by two stars (**))
17 | 135 to 138 | CNCCNc1ccc2nc(-c3ccc(OC)c(OC)c3)cc(=O)n2c1 [Compound 181, 2-(3,4-dimethoxyphenyl)-7-{[2-(methylamino)ethyl]amino}-4H-pyrido[1,2-a]pyrimidin-4-one] | * (A maximum fold increase of ≤1.2 is indicated by one star (*)) | 1 to 3 | –
18 | 167 to 169 | COc1c(F)cc(-c2cc(=O)n3cc(N4CCNCC4)ccc3n2)cc1F [Compound 183, 2-(3,5-difluoro-4-methoxyphenyl)-7-(piperazin-1-yl)-4H-pyrido[1,2-a]pyrimidin-4-one] | ** (a fold increase between >1.2 and ≤1.35 is indicated by two stars (**)) | 1 to 3 | –
19 | 182 to 184 | COc1c(F)cc(-c2cc(=O)n3cc(N4CCN[C@@H](C)C4)ccc3n2)cc1F [Compound 184, 2-(3,5-difluoro-4-methoxyphenyl)-7-[(3S)-3-methylpiperazin-1-yl]-4H-pyrido[1,2-a]pyrimidin-4-one] | ** (a fold increase between >1.2 and ≤1.35 is indicated by two stars (**)) | 1 to 3 | –
20 | 196 to 201 | COc1ccc(-c2cc(=O)n3cc(N4CCC(N(C)C)CC4)ccc3n2)cc1F [Compound 185, 7-[4-(dimethylamino)piperidin-1-yl]-2-(3-fluoro-4-methoxyphenyl)-4H-pyrido[1,2-a]pyrimidin-4-one] | *** (a fold increase between >1.35 and ≤1.5 is indicated by three stars (***)) | < 0.1 | –
